Laboratory results as given in US4927659A, “Tris-hydroxymethyl lower alkane esters as fat mimetics” (Nabisco Brands, Inc., priority 1989, dated 1990).

Assays:
[1] = tested on: porcine pancreatic lipase; experiment: in vitro digestibility: hydrolysis by pancreatic lipase (TLC densitometry); format: in vitro ADME; conditions: in 10 minutes, triglyceride control, 37° C., pH 7.1
Description: This example outlines the procedure for estimating the in vitro digestibility of the synthetic fat mimetics of this invention.
1. Buffer: A pH 7.1 phosphate buffer is prepared by dissolving 6.8 g. KH2 PO4 in 1 L. of millipore filtered water (to yield 0.05 M phosphate). Fifty mg. Ca(NO3)2 and 5.0 g. cholic acid (Na salt, an ox bile isolate from Sigma) are added to give 300 microM Ca^++ and 0.5 % cholic acid in 0.05 M phosphate. The pH is adjusted to approximately 7.1 with solid NaOH. Several drops of Baker "Resi-analyzed" toluene are added to prevent bacterial growth during storage at 3-5° C.
2. Lipase: About 15 mg./mL commercial porcine pancreatic lipase from U.S. Biochemical Corporation is dissolved in buffer.
3. Substrates and Standards: A 1.0 mL volumetric flask is charged with an amount of lipid substrate (test substance or standard) calculated to give a concentration of 200 nanomoles per microliter in Baker "Resi-analyzed" toluene. (The proper concentration may be approximated by […] the molecular weight of the lipid in question, dividing by 10, and diluting to the mark; this yields about 200 nanomoles per microliter.) This preparation affords the substrate to be used in the hydrolysis reactions. […]

[2] = in vivo animal feeding study for caloric availability (body weight gain); design: species or system male Sprague-Dawley rats; conditions: rats, diet of 50% fort and 21% test compound, 14 days
Source text: This example illustrates how the novel fat mimetics of this invention are screened for caloric availability by a carefully controlled in vivo animal feeding study.
An experimental relationship between total calories ingested and animal body weight gain is established by monitoring the body weight gain associated with consumption of a nutritionally balanced diet containing varying concentrations of a reference substance such as corn oil which has a known caloric availability. Correlations between total calories ingested and body weight gain are excellent (r=0.99).
Caloric availability of an unknown substance is evaluated by substituting a specific weight of the unknown substance for the reference substance and observing the body weight gain. The gain in body weight is equated to a total number of calories using the correlation previously established for the reference data. The estimated number of calories ingested are divided by the weight of unknown substance to give the apparent calories per gram for the unknown substance. Generally speaking, in these bioavailability studies, the degree of perianal pelt soiling correlates with reduced bioavailability.
The test animals are six-week-old male Sprague-Dawley rats obtained from the Portage, Mich. facility of the Charles River Laboratories, Inc. After acclimation for 15 days, the test duration is 14 days. […]

Row | hydrolysis by pancreatic lipase [1] | Compound | caloric availability (kcal/gram upon being metabolized) [2]
1 | substantially hydrolyzed | CCCCCCCC/C=C\CCCCCCCC(=O)OCC(COC(=O)CCCCCCC/C=C\CCCCCCCC)OC(=O)CCCCCCC/C=C\CCCCCCCC [triolein] | 
2 |  | CCCCCCCC/C=C\CCCCCCCC(=O)OCC(C)(COC(=O)CCCCCCC/C=C\CCCCCCCC)COC(=O)CCCCCCC/C=C\CCCCCCCC [Example 1, 1,1,1-Tris-hydroxymethylethane trioleate] | about 3.3 kcal/gram
